Experimental data taken from patent US7432386B2, “Diarylbutadiene-substituted methyltrialkylsilanes and photoprotective compositions comprised thereof” (L'Oreal, priority 2003, dated 2008).

Assay: UV absorption spectrum in ethanol
Assay type: physicochemical
Settings: for UV E1% / UV εmax: at λmax

Row | SMILES | UV λmax | UV E1% | UV εmax
1 | C[Si](C)(C)COC(=O)C(=CC=C(c1ccccc1)c1ccccc1)C(=O)OC[Si](C)(C)C [Example 1] | 333 nm | 614 | 28 610
2 | CCOC(=O)/C(=C/C=C(c1ccccc1)c1ccccc1)C(=O)OC[Si](C)(C)C [Example 2] | 334 nm | 692 | 28 270
3 | C[Si](C)(C)COC(=O)/C(C#N)=C\C=C(c1ccccc1)c1ccccc1 [Example 3, monotrimethylsilanylmethyl ester of 2-cyano-5,5-diphenyl-2,4-pentadienoic acid] | 360 nm | 800 | 28 880
